Laboratory results: US12440475B2, “Hodgkin lymphoma therapy” (priority 2016, dated 2025)
“And” between values parts separate entries of the source, which are not always exact repeats. Equal entries are not always repeated.

Key:
[1] = test system: Hodgkin lymphoma cell lines; experiment: Apoptosis by annexin V-FITC and Hoechst double staining, 7 cell lines; format: cell-based, human; settings: 5 μM; 24 h and 48 h; all cells
Experimental: This assay was performed on 7 cell lines (HDLM2 was excluded due to the low number of available cells) at 24 h and 48 h following EDO-S101 treatment (5 μM, DMSO). Control cells were cultured in the same final concentration of DMSO. Only viable cells (using Hoechst staining) were focused on, and all necrotic cells were excluded. Apoptosis was determined using annexin V-FITC and Hoechst (33342) double staining according to the manufacturer's instructions (BD Biosciences). Cell-cycle fractions were determined by Hoechst nuclear staining. Briefly, cells were harvested, washed in PBS, incubated with annexin V-FITC and Hoechst solution for 30 minutes at room temperature. Data were collected using a FACSCalibur flow cytometer (BD Biosciences) and analyzed with FlowJo Version 7.5.5 obtainable from FlowJo, LLC. Results represent the mean value of 3 independent experiments.

KMH2 = experiment: Clonogenic survival in methylcellulose, KMH2; format: cell-based, human; settings: lowest doses (0.1 and 0.5 μmol)
Experimental: (§1) In all examples, the human Hodgkin lymphoma-derived cell lines L428, L428-c, KMH2, L591, L540, L1236, HDLM2 and SUP-HD were obtained from Dr Steffen Junker (Aarhus University Denmark). All cell lines were cultured in Gibco RPMI 1640 medium supplemented with Glutamax, 10% FBS and antibiotics at 37° C. […] The immunophenotype, P53 status and MSI characterization of the Hodgkin lymphoma cell lines was determined using anti-CD30, CD15, CD20 and CD14 antibodies.
(§2) This test was performed on four Hodgkin lymphoma cell lines (L428, L428s, KMH2 and L540). Each was cultured with EDO-S101 at doses of 0, 0.1, 0.5, 1, 10 and 20 μmol in DMSO. The cell lines were cultured in methylcellulose (Stem cell Technologies) at a concentration of 10^5/ml at 37° C. and 5% CO2. The surviving fraction was determined by measuring the viability of colonies generated before and after exposure. Only colonies with more than 50 cells were counted. Each data point represents the average and SD from three independent experiments performed in triplicate.

[2] = Weight of xenografted NSG mice after EDO-S101; format: in vivo
Experimental: (§3) Two independent experiments were performed to investigate the dose-effect of EDO-S101 in NSG mice eight weeks after xenografting with L428 cells as in Example 8. The aim of the protocol shown in FIG. 8B was to evaluate the effect of sequential treatment with a moderate dose of 60 mg/kg given at an interval of three weeks.
This weight loss was also observed in mice treated with the vehicle. In contrast, the weight of the control mice receiving only freshly prepared phosphate buffered saline (PBS) buffered to 7.3-7.4 increased up to 11 weeks and then started to decrease.
The toxicity of the dose of 80 mg/kg compared to 60 mg/kg was investigated, as compared to the control groups vehicle and PBS.

[3] = Histopathology of non-tumour findings (lung, spleen) in xenografted NSG mice; format: in vivo; design: key: 0: within physiological limits; 1: minimal; 2: mild; 3: moderate; 4: marked; 5: severe
Experimental: (§4) Organs were fixed in 4% PFA, trimmed and post-fixed in 70° ethanol. They were then briefly processed using a vacuum inclusion processor and paraffin blocks were prepared. Five micrometer-thick sections were cut from these blocks and the resulting sections were stained with hemotoxylin-eosine (H&E) for histopathological analysis. In addition, IHC was carried out on of the totality of liver and spleen specimens for confirmation of the spread of engrafted cells. The search for single cells or small groups of grafted Hodgkin lymphoma cells was performed using an anti-CD30 antibody (DAKO, France; 1:40, EDTA pH9 pre-treatment) and the Ventana Discovery XT IHC system. Apoptosis and tumour necrosis were analysed.
(§5) Microscopic findings were assigned a severity score based upon the following scale: “0”=within physiological limits, “1”=minimal, “2”=mild, “3”=moderate, “4”=marked, “5”=severe. This severity score was attributed according to the size and number of observed lesions.

L428 cells = experiment: L428 xenograft in NSG mice, histopathology (HE staining and CD30 immunohistochemistry); format: in vivo; design: key to Liver, Tumor cell infiltration, focal/multifocal (score per animal) / Liver, Tumor cell necrosis/Apoptosis (score per animal) / Eye and/or periocular mucosa, periocular tumor cell infiltration, focal/multifocal/diffuse (score per animal) / Tumor/Eye, Tumor cell necrosis/appotosis (score per animal): 0: within physiological limits; 1: minimal; 2: mild; 3: moderate; 4: marked; 5: severe
Source text: Immunodeficient NOD-SCID-gammac−/− (NSG) mice aged 5 to 6 weeks were purchased from Charles River (NOD.Cg-Prkdcscid II2rgtm1Wjl/SzJ). The mice arrived two weeks before the beginning of the experiments and were housed in micro-isolator cages during the entire course of the study. Immediately prior to the injection of Hodgkin lymphoma cells, mice were exposed to 3 Gy gamma irradiation using an IBL637 ^137Cs irradiator at a dose rate of 0.61 Gy/min. From 10^3 to 10^6 cells, either from the original cell lines or following amplification, were injected intravenously via the retro-orbital sinus. The mice were sacrificed by cervical dislocation and different organs were analysed and tumoural infiltration examined using multiple techniques.
as §3
The mice were sacrificed by cervical dislocation. The sampled organs consisted of the eyes (site of injection), liver, spleen and bone marrow. Following dissection of different organs, including tumours, the first portion was used for flow cytometry (FACS) and cytogenetic analyses while the second was fixed in 4% paraformaldehyde (PFA) for immunohistochemistry (IHC). To obtain a single cell suspension, the tissues were first cut into pieces. Thereafter, the cells were physically disaggregated using an 80 μm nylon cell strainer and filtered a second time through a 70 μm nylon cell strainer (BD Biosciences, Erembodegem, Belgium).
as §4, §5

L428 = experiment: Clonogenic survival in methylcellulose, L428; format: cell-based, human; settings: very low doses (0.1 and 0.5 μmol)
Experimental: as §1, §2

In the case of Cn1c(CCCCCCC(=O)NO)nc2cc(N(CCCl)CCCl)ccc21 [EDO-S101], the sensitivity for apoptosis [1] is reported as “high sensitivity”, the “clones observed (clonogenic survival)” value (KMH2) is reported as “only a few clones” and the “weight loss, 60 mg/kg versus 80 mg/kg” value ([2]; single dose 60 mg/kg or 80 mg/kg) is reported as “no significant difference”. For the same compound, the “weight of the mice or the different organs” value ([2]; treated versus untreated mice) was “No significant difference”, the weight of mice ([2]; two doses of 60 mg/kg three weeks apart) was “weight loss following each administration which was regained after several weeks” and the “Lung, alveolar histiocytosis (score per animal)” value ([3]; 1*60 mg/kg) was 1. For the same compound, the “Lung, alveolar histiocytosis (score per animal)” value ([3]; 1*80 mg/kg) was 1, the “Spleen, red pulp activation, diffuse (score per animal)” value ([3]; 2*60 mg/kg) was 3 and the “tumour masses in liver” value (L428 cells; 80 mg/kg) was “No tumour masses were observed in the liver”. For the same compound, the “tumour cell degeneration (necrosis/apoptosis)” value (L428 cells; 80 mg/kg or 60 mg/kg) was “No cell necerosis was observed”, the “Eye and/or periocular mucosa, periocular tumor cell infiltration, focal/multifocal/diffuse (score per animal)” value (L428 cells; 1*60 mg/kg, 60 mg/kg) was 5 and 4 (2×) and 3 and the “Liver, Tumor cell infiltration, focal/multifocal (score per animal)” value (L428 cells; 1*60 mg/kg, 60 mg/kg) was 2 and 1 and 3. The “Tumor/Eye, Tumor cell necrosis/appotosis (score per animal)” value (from here on “Tumor/Eye … (score per animal)”) (L428 cells; 1*60 mg/kg, 60 mg/kg) was 0 (2×) and 1 (2×), the “Eye and/or periocular mucosa, periocular tumor cell infiltration, focal/multifocal/diffuse (score per animal)” value (L428 cells; 1*80 mg/kg) was 5 and the “Tumor/Eye … (score per animal)” value (L428 cells; 1*80 mg/kg) was 1. The “Eye and/or periocular mucosa, periocular tumor cell infiltration, focal/multifocal/diffuse (score per animal)” value (L428 cells; 2*60 mg/kg) was 4, the “Liver, Tumor cell necrosis/Apoptosis (score per animal)” value (L428 cells; 2*60 mg/kg) was 0 and the “Tumor tissue, without connection to other organs (per animal)” value (L428 cells; 2*60 mg/kg) was “yes”. The “Liver, Tumor cell infiltration, focal/multifocal (score per animal)” value (L428 cells; 2*60 mg/kg, 60 mg/kg) was 1 (3×) and 0 and 2, the “Tumor/Eye … (score per animal)” value (L428 cells; 2*60 mg/kg, 60 mg/kg) was 4 and 2 (2×) and the tumour regression (L428 cells; single dose of 60 mg/kg) was “significant tumour regression”. For the same compound, the “severity of tumoural cell infiltration” value (L428 cells; single injection 60 or 80 mg/kg, or two injections of 60 mg/kg three weeks apart) was “significant decrease in the severity of tumoural cell infiltration”, the tumour regression (L428 cells; two administrations of 60 mg/kg three weeks apart, versus control and single 60 mg/kg) was “Significant tumour regression” and the “clones observed (clonogenic survival)” value (L428) was “only macrophagic clones being observed”.
